Laboratory results as given in ChEMBL document CHEMBL5331068, “Briarane-type diterpenoids, the inhibitors of osteoclast formation by interrupting Keap1-Nrf2 interaction and activating Nrf2 pathway” (Eur J Med Chem, 2023).
Active and inactive are the calls of the source. The calls are words filed in the database; no cut-off is given here.

Assays:
[1] = Cytotoxicity against C57BL/6 mouse BMDM cells incubated for 48 hrs by MTT assay; type: toxicity, cell-based; conditions: BMDM cells (bone marrow-derived macrophages)
[2] = test system: BMDM; assay: Anti-osteoclastogenesis activity in C57BL/6 mouse BMDM cells assessed as inhibition of RANKL-induced osteoclastogenesis at 10 uM incubated for 7 days in the presence of M-CSF by TRAP-staining based microscopic analysis relative to control; type: functional; conditions: for inhibition at 10 µM: C57BL/6, BMDM, 168 h, time 7 day
[3] = biological target: Kelch-like ECH-associated protein 1 (Homo sapiens, UniProt Q14145); assay: Binding affinity to recombinant human Keap1 by SPR analysis
Chain of Kelch-like ECH-associated protein 1 (Q14145 whole entry): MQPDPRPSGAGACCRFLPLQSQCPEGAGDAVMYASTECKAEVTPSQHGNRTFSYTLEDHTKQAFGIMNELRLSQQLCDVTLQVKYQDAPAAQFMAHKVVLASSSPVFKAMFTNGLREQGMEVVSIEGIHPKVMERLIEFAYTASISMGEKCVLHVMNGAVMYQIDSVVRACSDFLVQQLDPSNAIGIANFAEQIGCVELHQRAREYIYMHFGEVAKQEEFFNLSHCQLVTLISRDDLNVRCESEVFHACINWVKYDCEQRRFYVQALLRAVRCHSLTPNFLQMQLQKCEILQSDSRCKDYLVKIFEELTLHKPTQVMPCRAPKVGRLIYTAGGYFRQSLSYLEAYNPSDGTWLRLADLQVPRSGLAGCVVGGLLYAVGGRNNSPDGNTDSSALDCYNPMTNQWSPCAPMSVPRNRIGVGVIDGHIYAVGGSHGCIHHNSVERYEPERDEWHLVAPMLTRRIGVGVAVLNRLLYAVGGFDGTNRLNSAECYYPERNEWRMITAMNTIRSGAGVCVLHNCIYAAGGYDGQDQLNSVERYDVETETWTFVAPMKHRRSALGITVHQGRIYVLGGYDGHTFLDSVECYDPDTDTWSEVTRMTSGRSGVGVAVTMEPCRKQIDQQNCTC

Structure (SMILES) | CC50 at 48 h [1] [µM] | inhibition at 10 µM [2] [%] | Activity [3] | inhibition ([2]; time 7.0 day)
CC(=O)O[C@H]1/C=C\C(CO)=C/[C@@H]2OC(=O)[C@H](C)[C@@]2(O)[C@@H](OC(C)=O)[C@H]2[C@@]3(CO3)[C@H](OC(=O)CC(C)C)C[C@H](OC(C)=O)[C@]12C | < 10 | – | – | –
CCOCC1=C/[C@@H]2OC(=O)[C@H](C)[C@@]2(O)[C@@H](OC(C)=O)[C@H]2[C@@]3(CO3)[C@H](OC(=O)CC(C)C)C(OC(C)=O)[C@H](OC(C)=O)[C@]2(C)[C@@H](OC(=O)COC(=O)CC(C)C)/C=C\1 (stereo partly specified) | > 50 | 41.9 | – | –
C=C1CC[C@H](OC(C)=O)[C@@]2(C)[C@@H](OC(C)=O)C[C@@H](OC(C)=O)[C@]3(CO3)[C@@H]2[C@H](OC(C)=O)[C@]2(O)[C@@H](C)C(=O)O[C@H]2[C@H]1Cl | > 50 | 13.5 | Active | –
CC(=O)O[C@H]1[C@@H](OC(=O)CC(C)C)[C@]2(CO2)[C@@H]2[C@H](OC(C)=O)[C@@]3(O)[C@H](/C=C(CO)\C=C/[C@H](OC(C)=O)[C@@]2(C)[C@H]1OC(C)=O)OC(=O)[C@@H]3C | > 50 | 55.8 | – | –
C=C1CC[C@H](OC(C)=O)[C@]2(C)[C@@H](OC(C)=O)C[C@@H](OC(C)=O)/C(COC(=O)CC(C)C)=C\[C@@H]3OC(=O)[C@H](C)[C@@]3(O)[C@@H](OC(C)=O)[C@@H]12 | > 50 | 91.3 | – | –
C=C1[C@H]2O[C@]3([C@@H](C)C(=O)O[C@H]3[C@H]1Cl)[C@@H](OC(C)=O)[C@H]1[C@@]3(CO3)[C@H](OC(C)=O)C[C@H](OC(C)=O)[C@]1(C)[C@@H](OC(C)=O)[C@@H]2OC(C)=O | > 50 | 37.1 | Active | –
CC(=O)O[C@H]1/C=C\C(CCl)=C/[C@@H]2OC(=O)[C@H](C)[C@@]2(O)[C@@H](OC(C)=O)[C@H]2[C@@]3(CO3)[C@H](OC(C)=O)C[C@H](OC(=O)CC(C)C)[C@]12C | > 50 | 18 | – | –
CC(=O)O[C@H]1/C=C\C(CO)=C/[C@@H]2OC(=O)[C@H](C)[C@@]2(O)[C@@H](OC(C)=O)[C@H]2[C@@](O)(CO)[C@H](O)[C@H](OC(=O)CC(C)C)[C@H](OC(C)=O)[C@]12C | > 50 | 62.8 | inactive | –
C=C1/C=C/[C@H](OC(C)=O)[C@@]2(C)[C@@H](OC(C)=O)C[C@@H](OC(=O)CC(C)C)[C@]3(CO3)[C@@H]2[C@H](OC(C)=O)[C@]2(O)[C@@H](C)C(=O)O[C@H]2[C@H]1Cl [GEMMACOLIDE I] | > 50 | 62.2 | – | –
CC(=O)O[C@H]1[C@@H](OC(=O)CC(C)C)[C@](O)(CO)[C@@H]2[C@H](OC(C)=O)[C@@]3(O)[C@H](/C=C(CO)\C=C/[C@H](OC(C)=O)[C@@]2(C)[C@H]1OC(C)=O)OC(=O)[C@@H]3C | > 50 | 34.8 | inactive | –
C=C1/C=C/[C@H](OC(C)=O)[C@@]2(C)[C@@H](OC(C)=O)C[C@@H](OC(C)=O)[C@]3(CO3)[C@@H]2[C@H](OC(C)=O)[C@]2(O)[C@@H](C)C(=O)O[C@H]2[C@H]1Cl [GEMMACOLIDE H] | > 50 | 13.1 | – | –
CC(=O)O[C@H]1[C@@H](OC(=O)CC(C)C)[C@](O)(CO)[C@@H]2[C@H](OC(C)=O)[C@@]3(O)[C@H](/C=C(CCl)\C=C/[C@H](OC(C)=O)[C@@]2(C)[C@H]1OC(C)=O)OC(=O)[C@@H]3C | > 50 | 20.9 | inactive | –
CC(=O)O[C@H]1/C=C\C(CCl)=C/[C@@H]2OC(=O)[C@H](C)[C@@]2(O)[C@@H](OC(C)=O)[C@H]2[C@@]3(CO3)[C@H](OC(=O)CC(C)C)C[C@H](OC(C)=O)[C@]12C | > 50 | 29.1 | – | –
C=C1CC[C@H](OC(C)=O)[C@]2(C)[C@@H](OC(C)=O)CC/C(C)=C\[C@@H]3OC(=O)[C@H](C)[C@@]3(O)[C@@H](OC(C)=O)[C@@H]12 | > 50 | 64.5 | – | –
C=C1[C@H]2O[C@]3([C@@H](C)C(=O)O[C@H]3[C@H]1Cl)[C@@H](OC(C)=O)[C@H]1[C@@](O)(CCl)CC[C@H](OC(C)=O)[C@]1(C)[C@@H](OC(C)=O)[C@@H]2OC(C)=O | > 50 | 98.8 | Active | –
C=C1[C@H](OC(=O)CC(C)C)C[C@H](OC(C)=O)[C@@]2(C)[C@@H](OC(C)=O)C[C@@H](OC(C)=O)[C@]3(CO3)[C@@H]2[C@H](OC(C)=O)[C@]2(O)[C@@H](C)C(=O)O[C@H]2[C@H]1Cl | > 50 | 100 | Active | –
CC(=O)O[C@H]1/C=C\C(COC(=O)CC(C)C)=C/[C@@H]2OC(=O)[C@H](C)[C@@]2(O)[C@@H](OC(C)=O)[C@H]2[C@@]3(CO3)[C@H](OC(=O)CC(C)C)C[C@H](OC(C)=O)[C@]12C | > 50 | 25 | – | –
C=C1CC[C@H](OC(C)=O)[C@]2(C)[C@@H](OC(C)=O)C[C@@H](OC(C)=O)/C(C(=O)OC)=C\[C@@H]3OC(=O)[C@H](C)[C@@]3(O)[C@@H](OC(C)=O)[C@@H]12 | > 50 | 49.4 | – | –

Structure (SMILES) | CC50 at 48 h [1] [µM] | inhibition at 10 µM [2] [%] | Activity [3] | inhibition ([2]; time 7.0 day)
C=C1[C@H](OC(C)=O)C[C@H](OC(C)=O)[C@@]2(C)[C@@H](OC(C)=O)C[C@@H](OC(C)=O)[C@]3(CO3)[C@@H]2[C@H](OC(C)=O)[C@]2(O)[C@@H](C)C(=O)O[C@H]2[C@H]1Cl | > 50 | 80.8 | – | –
C=C1CC[C@H](OC(=O)CC(C)C)[C@]2(C)[C@@H](OC(C)=O)C[C@@H](OC(C)=O)/C(C)=C\[C@@H]3OC(=O)[C@H](C)[C@@]3(O)[C@@H](OC(C)=O)[C@@H]12 | > 50 | 68 | – | –
CC(=O)O[C@H]1[C@@H](O)[C@](O)(CO)[C@@H]2[C@H](OC(C)=O)[C@@]3(O)[C@H](/C=C(COC(=O)CC(C)C)\C=C/[C@H](OC(C)=O)[C@@]2(C)[C@H]1OC(C)=O)OC(=O)[C@@H]3C | > 50 | 100 | inactive | –
CC(=O)OC1[C@@H](OC(=O)CC(C)C)[C@]2(CO2)[C@@H]2[C@H](OC(C)=O)[C@@]3(O)[C@H](/C=C(CCl)\C=C/[C@H](OC(=O)COC(=O)CC(C)C)[C@@]2(C)[C@H]1OC(C)=O)OC(=O)[C@@H]3C (stereo partly specified) | > 50 | 86.6 | – | –
C=C1[C@H](Cl)[C@@H]2OC(=O)[C@H](C)[C@]23O[C@]1(O)C[C@H](OC(C)=O)[C@@]1(C)[C@@H](OC(C)=O)C[C@@H](OC(=O)CC(C)C)[C@]2(CO2)[C@@H]1[C@@H]3OC(C)=O | > 50 | – | – | inactive
CCOCC1=C/[C@@H]2OC(=O)[C@H](C)[C@@]2(O)[C@@H](OC(C)=O)[C@H]2[C@@]3(CO3)[C@H](OC(=O)CC(C)C)C[C@H](OC(C)=O)[C@]2(C)[C@@H](OC(C)=O)/C=C\1 | > 50 | 51.2 | – | –
C=C1/C=C\[C@@H](OC(=O)COC(=O)CC(C)C)[C@@]2(C)[C@@H](OC(C)=O)[C@@H](OC(C)=O)[C@@H](OC(=O)CC(C)C)[C@]3(CO3)[C@@H]2[C@H](OC(C)=O)[C@]2(O)[C@@H](C)C(=O)O[C@H]2C1Cl (stereo partly specified) | > 50 | 84.3 | – | –
C=C1CC[C@H](OC(C)=O)[C@]2(C)[C@@H](OC(C)=O)C[C@@H](OC(C)=O)/C(CO)=C\[C@@H]3OC(=O)[C@H](C)[C@@]3(O)[C@@H](OC(C)=O)[C@@H]12 | > 50 | 40.7 | – | –
C=C1[C@H]2O[C@]3([C@H](C)C(=O)O[C@H]3[C@H]1Cl)[C@@H](OC(C)=O)[C@H]1[C@]3(CC[C@H](OC(C)=O)[C@]1(C)[C@@H](OC(C)=O)[C@@H]2OC(C)=O)CO3 | > 50 | 12.2 | – | –
CC(=O)O[C@H]1CC[C@]2(CO2)[C@@H]2[C@H](OC(C)=O)[C@@]3(O)[C@H](/C=C(/C)[C@H](OC(C)=O)C[C@H](OC(C)=O)[C@@]12C)OC(=O)[C@@H]3C [11ALPHA,20ALPHA-EPOXYJUNCEELLOLIDE] | > 50 | 58.1 | – | –
CC(=O)O[C@H]1/C=C\C(CO)=C/[C@@H]2OC(=O)[C@H](C)[C@@]2(O)[C@@H](OC(C)=O)[C@H]2[C@@]3(CO3)[C@H](OC(C)=O)C[C@H](OC(=O)CC(C)C)[C@]12C | > 50 | 68 | – | –
C=C1[C@H]2O[C@]3([C@@H](C)C(=O)O[C@H]3[C@H]1Cl)[C@@H](OC(C)=O)[C@H]1[C@@]3(CO3)[C@H](OC(=O)CC(C)C)C[C@H](OC(C)=O)[C@]1(C)[C@@H](OC(C)=O)[C@@H]2OC(C)=O | > 50 | 51.7 | – | –
CC(=O)O[C@H]1CC/C(C)=C\[C@@H]2OC(=O)[C@H](C)[C@@]2(O)[C@@H](OC(C)=O)[C@H]2[C@]3(CC[C@H](OC(C)=O)[C@]12C)CO3 [JUNCEELLOLIDE K] | > 50 | 86.6 | – | –
C=C1/C=C/[C@H](OC(C)=O)[C@@]2(C)[C@@H](OC(C)=O)CC[C@]3(CO3)[C@@H]2[C@H](OC(C)=O)[C@]2(O)[C@@H](C)C(=O)O[C@H]2[C@H]1Cl [JUNCEELLOLIDE C] | > 50 | 75 | – | –
CC(=O)O[C@H]1/C=C\C(CO)=C/[C@@H]2OC(=O)[C@H](C)[C@@]2(O)[C@@H](OC(C)=O)[C@H]2[C@@]3(CO3)[C@H](OC(C)=O)C[C@H](OC(C)=O)[C@]12C | < 10 | – | – | –
C=C1CC[C@H](OC(C)=O)[C@@]2(C)[C@@H](OC(C)=O)C[C@@H](OC(=O)CC(C)C)[C@]3(CO3)[C@@H]2[C@H](OC(C)=O)[C@]2(O)[C@@H](C)C(=O)O[C@H]2[C@H]1Cl [JUNCENOLIDE J] | > 50 | 98.8 | – | –
C=C1CC[C@H](OC(C)=O)[C@]2(C)[C@@H](OC(C)=O)C[C@@H](OC(C)=O)/C(C)=C\[C@@H]3OC(=O)[C@H](C)[C@@]3(O)[C@@H](OC(C)=O)[C@@H]12 | > 50 | 58.7 | – | –
